One experiment relates to Trop2+ MDA-MB-453 cells. Kind of experiment: Antigen dependent human monocyte activation in mouse model, TROP2+ tumor. Format: in vivo. Particulars: NOD SCID mice with TROP2+ tumor, 5-20 mg/kg intravenously, human monocytes injected intratumorally. As for the experimental part:
(§1) Human monocytes were prepared as described above. Trop2^+ MDA-MB-453 cells or Trop2^− MiaPaca2 were cultured by standard methods. A TLR8 benzazepine linker payload (LP) was prepared by attaching a MCC (N-maleimidomethyl]cyclohexane-1-carboxylate) linker in place of the mc-vc-PABA linker in Compound-Linker 2.1 to form Compound-Linker 2.22. TROP2-TLR8 benzazepine conjugates were prepared by conjugation of Compound-Linker 2.22 to a TROP2 antibody (sacituzumab) to form a conjugate with an average DAR of about 4.
(§2) On Day 1 NOD SCID mice were injected with 5×10^5 Trop2^+ MDA-MB-453 cells or Trop2-MiaPaca2 cells. Seven to ten days later when the tumor size reached about 300 mm^3, the mice were injected intraveneously with 5-20 mg/kg of the TROP2-TLR8 benzazepine conjugate or TROP2 antibody alone. Sixteen hours later, 10^6 human monocytes were injected intratumorally. Four to six hours later, the tumors were harvested and digested. Monocytes were identified by staining for cell surface markers and monocyte activation was determined by intracellular staining for IL-6.

Another experiment concerns Trop2− MiaPaca2. Kind of experiment: Antigen dependent human monocyte activation in mouse model, TROP2− tumor. The format is in vivo. Particulars: NOD SCID mice with TROP2− tumor, 5-20 mg/kg intravenously, human monocytes injected intratumorally. As for the experimental part: as §1, §2

Turning to “control antibody: "TROP2 antibody alone"; "a TROP2 antibody (sacituzumab)"”, the “human monocyte activation (intracellular staining for IL-6)” value in the experiment on Trop2+ MDA-MB-453 cells and with Trop2− MiaPaca2 was “did not cause human monocyte activation” in each case.

For the origin of these results see US10428045B2, “Benzazepine compounds, conjugates, and uses thereof” (Silverback Therapeutics, Inc., priority 2017, dated 2019).
